Data published in publication PMC9005681, “Use of AD Informer Set compounds to explore validity of novel targets in Alzheimer's disease pathology” (Alzheimer's & Dementia : Translational Research & Clinical …, 2022).

What was measured:
[1] = molecular target: T1, cloned human or rodent CNS receptors, channels, and transporters (PDSP panel) (Homo sapiens, UniProt P20309); test: PDSP GPCR panel primary binding assays at 10 μM; settings: primary assay
T1 construct: expressed in transfected cells
Protocol: (§1) GPCR panel: Screening against the receptors within the PDSP panel offers an assessment of off-target pharmacological activity at cloned human or rodent CNS receptors, channels, and transporters that could confound CNS-related phenotypes. A total of 46–47 primary binding assays were run in quadruplicate on these compounds at 10 μM, with follow-up secondary binding assays in 11-point dose-response in triplicate for select compounds versus select receptors. Secondary binding assays were executed for all receptors where test compound displaced an average of >50% of radio-labeled standard ligand. As an exception, no secondary assays were carried out for H3, PBR, or GABAA. […]

[2] = molecular target: T2, cloned human or rodent CNS receptors, channels, and transporters (PDSP panel) (Homo sapiens, UniProt P25021); test: PDSP GPCR panel primary binding assays at 10 μM; settings: primary assay
T2 construct: expressed in transfected cells
T2 sequence (P25021 whole entry): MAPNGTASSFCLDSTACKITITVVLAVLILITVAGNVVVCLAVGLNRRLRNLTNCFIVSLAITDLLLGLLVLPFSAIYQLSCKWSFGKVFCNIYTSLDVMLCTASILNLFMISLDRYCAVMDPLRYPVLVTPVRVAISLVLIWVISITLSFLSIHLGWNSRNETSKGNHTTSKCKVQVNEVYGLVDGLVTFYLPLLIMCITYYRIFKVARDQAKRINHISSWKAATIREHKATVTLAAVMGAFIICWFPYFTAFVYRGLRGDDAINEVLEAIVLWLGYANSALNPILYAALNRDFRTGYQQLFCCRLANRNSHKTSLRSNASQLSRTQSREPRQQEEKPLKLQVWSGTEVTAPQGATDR
Protocol: as §1

[3] = molecular target: T3, cloned human or rodent CNS receptors, channels, and transporters (PDSP panel) (Homo sapiens, UniProt P25100); test: PDSP GPCR panel primary binding assays at 10 μM; settings: primary assay
T3 construct: expressed in transfected cells
T3 sequence (P25100 1-572): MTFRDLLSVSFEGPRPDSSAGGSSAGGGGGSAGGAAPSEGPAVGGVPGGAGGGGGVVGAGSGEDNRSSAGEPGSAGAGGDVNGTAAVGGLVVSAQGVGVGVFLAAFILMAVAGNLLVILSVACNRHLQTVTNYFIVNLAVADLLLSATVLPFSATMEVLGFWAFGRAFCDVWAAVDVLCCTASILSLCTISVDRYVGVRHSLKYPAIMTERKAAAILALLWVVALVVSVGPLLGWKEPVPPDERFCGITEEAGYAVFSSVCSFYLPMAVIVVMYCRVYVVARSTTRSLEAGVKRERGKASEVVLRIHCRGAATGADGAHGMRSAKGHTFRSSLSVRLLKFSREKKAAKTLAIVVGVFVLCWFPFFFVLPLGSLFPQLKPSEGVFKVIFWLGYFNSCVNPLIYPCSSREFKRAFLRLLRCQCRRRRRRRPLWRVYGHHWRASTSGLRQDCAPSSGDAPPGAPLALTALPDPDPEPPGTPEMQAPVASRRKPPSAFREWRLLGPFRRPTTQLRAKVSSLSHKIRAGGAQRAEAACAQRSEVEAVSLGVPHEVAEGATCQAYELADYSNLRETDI
Protocol: as §1

[4] = molecular target: T4, cloned human or rodent CNS receptors, channels, and transporters (PDSP panel) (Homo sapiens, UniProt P28566); test: PDSP GPCR panel primary binding assays at 10 μM; settings: primary assay
T4 construct: expressed in transfected cells
T4 sequence (P28566 whole entry): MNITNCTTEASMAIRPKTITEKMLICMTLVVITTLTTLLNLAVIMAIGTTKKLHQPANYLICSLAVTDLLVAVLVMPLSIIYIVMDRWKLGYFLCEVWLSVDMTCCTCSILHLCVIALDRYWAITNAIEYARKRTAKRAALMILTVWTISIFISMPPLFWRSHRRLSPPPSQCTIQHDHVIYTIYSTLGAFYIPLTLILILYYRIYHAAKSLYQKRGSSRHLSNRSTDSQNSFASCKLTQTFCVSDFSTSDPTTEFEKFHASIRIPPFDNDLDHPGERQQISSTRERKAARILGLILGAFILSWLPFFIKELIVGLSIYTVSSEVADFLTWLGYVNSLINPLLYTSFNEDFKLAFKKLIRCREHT
Protocol: as §1

[5] = molecular target: T5, cloned human or rodent CNS receptors, channels, and transporters (PDSP panel) (Homo sapiens, UniProt P34969); test: PDSP GPCR panel primary binding assays at 10 μM; settings: primary assay
T5 construct: expressed in transfected cells
T5 sequence (P34969 whole entry): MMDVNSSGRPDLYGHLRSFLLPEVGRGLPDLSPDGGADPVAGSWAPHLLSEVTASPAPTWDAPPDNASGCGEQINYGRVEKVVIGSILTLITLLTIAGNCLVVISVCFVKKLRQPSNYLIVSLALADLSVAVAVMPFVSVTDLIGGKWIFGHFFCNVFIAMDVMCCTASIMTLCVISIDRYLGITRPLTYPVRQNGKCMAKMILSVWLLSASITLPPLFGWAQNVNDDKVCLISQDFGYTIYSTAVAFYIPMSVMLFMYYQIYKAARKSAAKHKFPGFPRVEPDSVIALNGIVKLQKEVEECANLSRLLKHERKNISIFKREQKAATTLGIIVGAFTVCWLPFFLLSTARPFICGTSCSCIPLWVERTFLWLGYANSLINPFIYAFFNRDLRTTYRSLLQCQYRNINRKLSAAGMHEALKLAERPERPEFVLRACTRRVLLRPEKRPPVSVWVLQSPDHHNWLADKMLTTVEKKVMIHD
Protocol: as §1

[6] = molecular target: T6, cloned human or rodent CNS receptors, channels, and transporters (PDSP panel) (Homo sapiens, UniProt P35368); test: PDSP GPCR panel primary binding assays at 10 μM; settings: primary assay
T6 construct: expressed in transfected cells
T6 sequence (P35368 1-520): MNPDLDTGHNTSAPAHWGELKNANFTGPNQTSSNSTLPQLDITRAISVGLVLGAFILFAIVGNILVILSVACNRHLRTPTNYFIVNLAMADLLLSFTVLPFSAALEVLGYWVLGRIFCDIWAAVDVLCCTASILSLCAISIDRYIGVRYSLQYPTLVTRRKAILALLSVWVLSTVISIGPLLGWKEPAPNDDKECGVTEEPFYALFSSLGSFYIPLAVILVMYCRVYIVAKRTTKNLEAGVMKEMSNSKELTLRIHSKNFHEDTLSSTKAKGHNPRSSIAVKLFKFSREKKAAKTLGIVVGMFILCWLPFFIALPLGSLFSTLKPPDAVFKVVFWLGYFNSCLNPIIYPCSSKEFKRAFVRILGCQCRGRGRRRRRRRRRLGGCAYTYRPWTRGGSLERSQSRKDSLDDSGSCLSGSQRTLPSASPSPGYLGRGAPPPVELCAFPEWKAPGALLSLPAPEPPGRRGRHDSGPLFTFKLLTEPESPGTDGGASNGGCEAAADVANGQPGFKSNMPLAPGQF
Protocol: as §1

[7] = molecular target: T7, cloned human or rodent CNS receptors, channels, and transporters (PDSP panel) (Homo sapiens, UniProt P35372); test: PDSP GPCR panel primary binding assays at 10 μM; settings: primary assay
T7 construct: expressed in transfected cells
T7 sequence (P35372 whole entry): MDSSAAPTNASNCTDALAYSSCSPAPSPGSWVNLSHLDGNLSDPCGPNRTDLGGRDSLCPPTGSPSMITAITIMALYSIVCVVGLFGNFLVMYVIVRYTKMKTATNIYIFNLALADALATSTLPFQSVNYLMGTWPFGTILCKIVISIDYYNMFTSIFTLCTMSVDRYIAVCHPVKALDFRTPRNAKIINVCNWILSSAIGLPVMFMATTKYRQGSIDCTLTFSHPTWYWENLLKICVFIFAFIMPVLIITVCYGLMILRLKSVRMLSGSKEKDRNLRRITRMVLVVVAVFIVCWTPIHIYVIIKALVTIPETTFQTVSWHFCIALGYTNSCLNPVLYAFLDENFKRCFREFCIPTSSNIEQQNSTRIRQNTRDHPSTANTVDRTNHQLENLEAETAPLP
Protocol: as §1

[8] = Snapshot IV PK in CD1 mice; type: in vivo; settings: for clearance: CD1, mouse, plasma, iv, 3 mg/kg; for Cmax / half-life / Vd: CD1, plasma; for Vd: read-out: Vss
Protocol: PK data: For snapshot PK studies, pooled plasma was analyzed at 0.5h, 1h, 2h, and 4h following
a single IV dose (3 mg/kg) in CD1 mice (2 mice per cohort) for each compound (Table 2). […]

[9] = tested on: cellular system; set-up: method as in column References for potency and dosing (the 5th table c13); settings: published data; References for potency and dosing; cited from earlier work

T1 sequence (P20309 whole entry): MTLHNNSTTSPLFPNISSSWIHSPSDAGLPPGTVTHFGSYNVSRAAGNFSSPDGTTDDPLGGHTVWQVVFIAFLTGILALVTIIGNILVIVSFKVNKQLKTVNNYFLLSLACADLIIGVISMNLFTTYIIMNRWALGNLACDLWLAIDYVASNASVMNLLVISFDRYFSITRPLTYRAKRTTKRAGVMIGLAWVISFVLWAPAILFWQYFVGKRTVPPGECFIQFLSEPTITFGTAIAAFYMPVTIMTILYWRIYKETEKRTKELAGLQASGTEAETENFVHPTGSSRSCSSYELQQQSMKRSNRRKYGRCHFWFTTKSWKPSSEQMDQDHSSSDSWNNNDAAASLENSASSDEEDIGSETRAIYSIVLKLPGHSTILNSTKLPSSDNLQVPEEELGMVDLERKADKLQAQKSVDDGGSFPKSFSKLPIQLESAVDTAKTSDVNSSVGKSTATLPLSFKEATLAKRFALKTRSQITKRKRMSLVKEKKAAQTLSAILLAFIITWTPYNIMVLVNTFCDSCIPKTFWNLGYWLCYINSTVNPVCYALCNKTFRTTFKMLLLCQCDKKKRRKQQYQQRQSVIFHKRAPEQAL

Cl.NC(=O)c1cnc(N[C@@H]2CCCC[C@@H]2N)nc1Nc1cccc(-n2nccn2)c1 [UNC10302682A, P505-15 (PRT06207 HCl)]
Inhibition 1 ([1]; Receptor M3, 10 μM): 28.46% | Inhibition 2 ([1]; Receptor M3, 10 μM): 2.32% | Inhibition 3 ([1]; Receptor M3, 10 μM): 15.74% | Inhibition 4 ([1]; Receptor M3, 10 μM): 10.41% | Mean % ([1]; Receptor M3, 10 μM, mean of Inhibition 1-4): 14.23% | Inhibition 1 ([2]; Receptor H2, 10 μM): 59.21% | Inhibition 2 ([2]; Receptor H2, 10 μM): 38.77% | Inhibition 3 ([2]; Receptor H2, 10 μM): 21.91% | Inhibition 4 ([2]; Receptor H2, 10 μM): -3.64% | Mean % ([2]; Receptor H2, 10 μM, mean of Inhibition 1-4): 29.06% | Inhibition 1 ([3]; Receptor Alpha1D, 10 μM): 22.56% | Inhibition 2 ([3]; Receptor Alpha1D, 10 μM): 13.18% | Inhibition 3 ([3]; Receptor Alpha1D, 10 μM): 20.43% | Inhibition 4 ([3]; Receptor Alpha1D, 10 μM): 14.74% | Mean % ([3]; Receptor Alpha1D, 10 μM, mean of Inhibition 1-4): 17.73% | Inhibition 1 ([4]; Receptor 5-HT1E, 10 μM): -23.96% | Inhibition 2 ([4]; Receptor 5-HT1E, 10 μM): -26.62% | Inhibition 3 ([4]; Receptor 5-HT1E, 10 μM): 0% | Inhibition 4 ([4]; Receptor 5-HT1E, 10 μM): -50.26% | Mean % ([4]; Receptor 5-HT1E, 10 μM, mean of Inhibition 1-4): -25.21% | Inhibition 1 ([5]; Receptor 5-HT7A, 10 μM): 33.86% | Inhibition 2 ([5]; Receptor 5-HT7A, 10 μM): 20.22% | Inhibition 3 ([5]; Receptor 5-HT7A, 10 μM): 54.31% | Inhibition 4 ([5]; Receptor 5-HT7A, 10 μM): 52.91% | Mean % ([5]; Receptor 5-HT7A, 10 μM, mean of Inhibition 1-4): 40.33% | Inhibition 1 ([6]; Receptor Alpha1B, 10 μM): 60.7% | Inhibition 2 ([6]; Receptor Alpha1B, 10 μM): 57.49% | Inhibition 3 ([6]; Receptor Alpha1B, 10 μM): 49.58% | Inhibition 4 ([6]; Receptor Alpha1B, 10 μM): 52.45% | Mean % ([6]; Receptor Alpha1B, 10 μM, mean of Inhibition 1-4): 55.06% | Inhibition 1 ([7]; Receptor MOR, 10 μM): 27.09% | Inhibition 2 ([7]; Receptor MOR, 10 μM): 20.29% | Inhibition 3 ([7]; Receptor MOR, 10 μM): 17.6% | Inhibition 4 ([7]; Receptor MOR, 10 μM): 20.19% | Mean % ([7]; Receptor MOR, 10 μM, mean of Inhibition 1-4): 21.29% | clearance [8]: 49.7 mL/min/kg | Cmax ([8]; mouse, 3.0 mg/kg): 595 ng/mL | half-life ([8]; mouse, 3.0 mg/kg): 1.64 h | Vd ([8]; mouse, 3.0 mg/kg): 6.26 L/kg | Reported as cell active (<10 μM) [9]: Y (Published data supports that the compound is active in a cellular system when dosed at 10 μM (Y/N))

CCC(=O)N1CCC(NC(=O)Nc2ccc(OC(F)(F)F)cc2)CC1 [UNC10302681A, TPPU]
Mean % ([1]; M3, mean inhibition): 3.57% | Inhibition 1 ([1]; M3, replicate 1): 4.75% | Inhibition 2 ([1]; M3, replicate 2): 5.92% | Inhibition 3 ([1]; M3, replicate 3): 13.87% | Inhibition 4 ([1]; M3, replicate 4): -10.26% | Mean % ([2]; H2, mean inhibition): -16.74% | Inhibition 1 ([2]; H2, replicate 1): -3.12% | Inhibition 2 ([2]; H2, replicate 2): -11.73% | Inhibition 3 ([2]; H2, replicate 3): -19.51% | Inhibition 4 ([2]; H2, replicate 4): -32.59% | Mean % ([3]; Alpha1D, mean inhibition): -10.94% | Inhibition 1 ([3]; Alpha1D, replicate 1): -5.01% | Inhibition 2 ([3]; Alpha1D, replicate 2): -6% | Inhibition 3 ([3]; Alpha1D, replicate 3): -20.78% | Inhibition 4 ([3]; Alpha1D, replicate 4): -11.97% | Mean % ([4]; 5-HT1E, mean inhibition): -4.36% | Inhibition 1 ([4]; 5-HT1E, replicate 1): 0.45% | Inhibition 2 ([4]; 5-HT1E, replicate 2): -10.14% | Inhibition 3 ([4]; 5-HT1E, replicate 3): -9.09% | Inhibition 4 ([4]; 5-HT1E, replicate 4): 1.34% | Mean % ([5]; 5-HT7A, mean inhibition): 28.67% | Inhibition 1 ([5]; 5-HT7A, replicate 1): 34.17% | Inhibition 2 ([5]; 5-HT7A, replicate 2): 16.81% | Inhibition 3 ([5]; 5-HT7A, replicate 3): 23.63% | Inhibition 4 ([5]; 5-HT7A, replicate 4): 40.05% | Mean % ([6]; Alpha1B, mean inhibition): 7.22% | Inhibition 1 ([6]; Alpha1B, replicate 1): 0.2% | Inhibition 2 ([6]; Alpha1B, replicate 2): 16.24% | Inhibition 3 ([6]; Alpha1B, replicate 3): 7.3% | Inhibition 4 ([6]; Alpha1B, replicate 4): 5.13% | Mean % ([7]; MOR, mean inhibition): 7.56% | Inhibition 1 ([7]; MOR, replicate 1): 7.83% | Inhibition 2 ([7]; MOR, replicate 2): 3.61% | Inhibition 3 ([7]; MOR, replicate 3): 10.7% | Inhibition 4 ([7]; MOR, replicate 4): 8.11% | clearance [8]: 1.3 mL/min/kg | Cmax ([8]; mouse, 3.0 mg/kg): 2140 ng/mL | half-life ([8]; mouse, 3.0 mg/kg): 13.8 h | Vd ([8]; mouse, 3.0 mg/kg): 1.55 L/kg | CL ([8]; mouse, 3.0 mg/kg): 1.31 mL/min/kg | Reported as cell active (<10 μM) [9]: Y (Published data supports that the compound is active in a cellular system when dosed at 10 μM (Y/N))
